According to PMC6304572, “Simultaneous Evaluation of the Influence of Panax ginseng on the Pharmacokinetics of Three Diester Alkaloids after Oral Administration of Aconiti Lateralis Radix in Rats Using UHPLC/QQQ-MS/MS” (Evidence-based Complementary and Alternative Medicine : eCAM, 2018):
Where two headings read alike, the source gives them in different places.

Columns and labels:
[1] = Pharmacokinetics of three diester alkaloids in rat plasma after oral Aconiti Lateralis Radix extract, with or without 7-day P. ginseng pretreatment; type: in vivo, Sprague-Dawley rats; conditions: for CL/F / Cmax / Tmax / Vd/F / half-life: Sprague-Dawley, rat, in vivo, po, 1 g/kg; for CL/F / Cmax / Tmax / Vd/F / half-life / AUC(0-t) / AUC(0-∞): oral Aconiti Lateralis Radix extract 1 g/kg on 8th day; for CL/F: read-out: CLz/F (converted); for Cmax: read-out: Cmax; for Tmax: read-out: Tmax; for Vd/F: read-out: Vz/F; for half-life: read-out: t1/2z (converted)
Experimental: Rats were randomly divided into 4 groups: control group, P. ginseng (low, middle, and high) group. 7 days of oral administration of P. ginseng extract was administered at a dosage of 0.1, 1, 10 g/kg for P. ginseng group (low, middle, and high), respectively, once daily. Distilled water was administered at a dosage of 2 ml/kg for control group, simultaneously. On the 8th day, Aconiti Lateralis Radix extracts (1 g/kg) were orally administered to all groups. 0.5 ml plasma samples were collected in 1.5 ml centrifuge tubes (containing heparin sodium) at 10, 30, 60, 90, 120, 240, 480, 720, 1440, and 2880 min. All plasma samples were centrifuged for 15 min at 4000g. The supernatant was separated to another 1.5 ml centrifuge tubes and stored at -20°C.
Liquid-liquid extraction (ethyl acetate) and protein precipitation (50% acetonitrile plus 50% methanol) methods were compared to determine the best method to prepare the plasma sample. Liquid-liquid extraction method was chosen, due to reproducibly high recovery rates. The details of the extraction are as follows: 10 μL carbamazepine (IS) was added to 90 μL plasma, spiked with 400 μL ethyl acetate and the mixture vortexed for 15 seconds. After centrifugation at 12,000g for 10 min, the supernatant was transferred to another 1.5 mL centrifuge tube and dried under a stream of nitrogen at 37°C. The residue was redissolved in 100 μL 50% acetonitrile and centrifuged at 12,000g for 10 min and filtered through a 0.22 μm Micropore membrane. A 5 μL volume of supernatant was injected into LC-MS system for analysis.
Xevo TQ-S (Waters, USA) was utilized for the analysis of all biological samples. Chromatographic separation was conducted on Waters ACQUITY UPLC HSS T3 1.8 μm column (2.1 mm × 100 mm). Column temperature was 45°C and the flow rate was 0.5ml/min. Room temperature was 20 ± 2°C. Phase A consisted of water and 0.1% formic acid (v/v), and phase B consisted of acetonitrile (ACN) 0.1% formic acid (v/v). Column separation was performed by gradient elution: 0-0.5 min, 10% B; 1-2 min, 90% B; 4 min, 10% B.
Electrospray ionization (ESI) and positive ion V mode were used to determine the samples. The main parameters for mass spectrum were set as follows: capillary voltage: 3.5 kv; sample cone: 60 v; source offset: 50 v; source temperature: 150°C; desolvation temperature: 350°C; cone gas flow: 150 L/h; desolvation gas flow: 650 L/h; injection volume: 5 μL.
The data was acquired and analyzed by XEVO-QT-S (Waters). The pharmacokinetic parameters were analyzed by DAS pharmacokinetic program (Version 2.0). SAS statistical software was used to determine the difference between each group. All data was presented as mean ± SD, and P<0.05 was considered statistically significant.

[2] = Stability of the three alkaloids in rat plasma QC samples (4°C, room temperature, freeze-thaw); type: in vitro ADME; conditions: for Freeze-thaw Accuracy: freeze-thaw three times; for Room temperature stability (24 h) Accuracy: room temperature (about 25°C)
Experimental: Plasma from rats without any processing was used to evaluate the detection methods. 0.1, 0.25, 0.5, 1, 2.5, 5, 10 ng/ml were chosen to calculate standards curve. 0.1, 0.4, 4, 8 ng/mL were selected as the QC sample (n = 4) with repeated operations used to calculate accuracy and precision of the detection method. The data was acquired after keeping the samples at either +4°C 24 hours or room temperature (about 25°C) for 24 hours as well as using freeze-thaw methods (three times) to evaluate stability. Recovery of the developed methods was calculated by the following formula: recovery = measured value/ theoretical value × 100%.

[3] = P. ginseng-high (10 g/kg oral, 7 days)
[4] = P. ginseng-low (0.1 g/kg oral, 7 days)
[5] = P. ginseng-middle (1 g/kg oral, 7 days)
[6] = control group (distilled water 7 days)

CCN1C[C@]2(COC)[C@H](O)C[C@H](OC)[C@@]34[C@@H]5C[C@@]6(O)[C@H](OC(=O)c7ccccc7)[C@@H]5[C@@](OC(C)=O)([C@@H]([C@H](OC)[C@H]23)[C@@H]14)[C@@H](O)[C@@H]6OC [Aconitine]
CL/F [1, 3]: 852 mL/min/kg
Cmax [1, 3]: 11.5 ± 3.49 ng/mL
Tmax [1, 3]: 1.33 ± 0.41 h
Vd/F [1, 3]: 1550 ± 686 L/kg
half-life [1, 3]: 26.5 ± 23.3 h
CL/F [1, 4]: 2870 mL/min/kg
Cmax [1, 4]: 5.03 ± 3.02 ng/mL
Tmax [1, 4]: 4 ± 3.27 h
Vd/F [1, 4]: 2480 ± 945 L/kg
half-life [1, 4]: 10.1 ± 3.72 h
CL/F [1, 5]: 2830 mL/min/kg
Cmax [1, 5]: 5.79 ± 2.8 ng/mL
Tmax [1, 5]: 2.11 ± 2.97 h
Vd/F [1, 5]: 1460 ± 190 L/kg
half-life [1, 5]: 6.14 ± 1.18 h
CL/F [1, 6]: 3760 mL/min/kg
Cmax [1, 6]: 3.88 ± 0.92 ng/mL
Tmax [1, 6]: 2.67 ± 2.91 h
Vd/F [1, 6]: 3350 ± 1370 L/kg
half-life [1, 6]: 10.7 ± 4.78 h
AUC(0-t) [1, 3]: 162.98 ± 48.50^∗∗ μg/L∗h
AUC(0-∞) [1, 3]: 228.56 ± 100.03^∗∗ μg/L∗h
AUC(0-t) ([1]; P. ginseng-high (10 g/kg oral, 7 days), listed as aconitine): 162.98 ± 48.50 μg/L∗h
AUC(0-t) [1, 4]: 58 ± 13.02 μg/L∗h
AUC(0-∞) [1, 4]: 60.32 ± 12.99 μg/L∗h
AUC(0-t) [1, 5]: 61.05 ± 12.82^∗ μg/L∗h
AUC(0-∞) [1, 5]: 61.49 ± 13.16^∗ μg/L∗h
AUC(0-t) ([1]; P. ginseng-middle (1 g/kg oral, 7 days), listed as aconitine): 61.05 ± 12.82 μg/L∗h
AUC(0-t) [1, 6]: 40.77 ± 9.71 μg/L∗h
AUC(0-∞) [1, 6]: 46.20 ± 9.57 μg/L∗h
4°C temperature stability (24 h) Accuracy ([2]; QC conc. 0.40 ng/mL): 99.65 ± 2.16%
Freeze-thaw Accuracy ([2]; QC conc. 0.40 ng/mL): 99.71 ± 2.06%
Room temperature stability (24 h) Accuracy ([2]; QC conc. 0.40 ng/mL): 100.49 ± 2.52%
4°C temperature stability (24 h) Accuracy ([2]; QC conc. 4.00 ng/mL): 98.98 ± 9.99%
Freeze-thaw Accuracy ([2]; QC conc. 4.00 ng/mL): 99.91 ± 6.23%
Room temperature stability (24 h) Accuracy ([2]; QC conc. 4.00 ng/mL): 96.29 ± 3.26%
4°C temperature stability (24 h) Accuracy ([2]; QC conc. 8.00 ng/mL): 101.57 ± 1.29%
Freeze-thaw Accuracy ([2]; QC conc. 8.00 ng/mL): 100.22 ± 1.87%
Room temperature stability (24 h) Accuracy ([2]; QC conc. 8.00 ng/mL): 97.66 ± 4.54%

COC[C@@]12CC[C@H](OC)[C@]34C(C([C@H](OC)[C@H]13)[C@]1(OC(C)=O)[C@H]3[C@@H](OC(=O)c5ccccc5)[C@](O)(C[C@H]34)[C@@H](OC)[C@@H]1O)N(C)C2 [Hypaconitine]
CL/F [1, 3]: 2320 mL/min/kg
Cmax [1, 3]: 4.87 ± 1.36 ng/mL
Tmax [1, 3]: 1.83 ± 1.29 h
Vd/F [1, 3]: 2280 ± 954 L/kg
half-life [1, 3]: 11.7 ± 4.21 h
CL/F [1, 4]: 2380 mL/min/kg
Cmax [1, 4]: 4.02 ± 2.01 ng/mL
Tmax [1, 4]: 3.61 ± 3.47 h
Vd/F [1, 4]: 2020 ± 819 L/kg
half-life [1, 4]: 9.7 ± 3.55 h
CL/F [1, 5]: 2360 mL/min/kg
Cmax [1, 5]: 5.85 ± 2.71 ng/mL
Tmax [1, 5]: 2.53 ± 3.01 h
Vd/F [1, 5]: 1400 ± 272 L/kg
half-life [1, 5]: 6.97 ± 1.77 h
CL/F [1, 6]: 3400 mL/min/kg
Cmax [1, 6]: 4.63 ± 1.96 ng/mL
Tmax [1, 6]: 2.67 ± 2.91 h
Vd/F [1, 6]: 3880 ± 1700 L/kg
half-life [1, 6]: 14.1 ± 5.41 h
Change of Cmax versus control ([1]; all P. ginseng groups compared to control): did not change
AUC(0-t) [1, 3]: 71.75 ± 22.2^∗ μg/L∗h
AUC(0-∞) [1, 3]: 77.26 ± 25.15^∗ μg/L∗h
AUC(0-t) ([1]; P. ginseng-high (10 g/kg oral, 7 days), listed as hypaconitine): 71.75 ± 22.2 μg/L∗h
AUC(0-t) [1, 4]: 65.64 ± 13.14 μg/L∗h
AUC(0-∞) [1, 4]: 70.68 ± 8.89^∗ μg/L∗h
AUC(0-t) [1, 5]: 70.71 ± 7.55^∗ μg/L∗h
AUC(0-∞) [1, 5]: 71.49 ± 8.07^∗ μg/L∗h
AUC(0-t) ([1]; P. ginseng-middle (1 g/kg oral, 7 days), listed as hypaconitine): 70.71 ± 7.55 μg/L∗h
AUC(0-t) [1, 6]: 48.12 ± 24.59 μg/L∗h
AUC(0-∞) [1, 6]: 60.16 ± 28.03 μg/L∗h
4°C temperature stability (24 h) Accuracy ([2]; QC conc. 0.40 ng/mL): 97.44 ± 2.35%
Freeze-thaw Accuracy ([2]; QC conc. 0.40 ng/mL): 99.71 ± 2.06%
Room temperature stability (24 h) Accuracy ([2]; QC conc. 0.40 ng/mL): 100.49 ± 2.52%
4°C temperature stability (24 h) Accuracy ([2]; QC conc. 4.00 ng/mL): 104.96 ± 5.49%
Freeze-thaw Accuracy ([2]; QC conc. 4.00 ng/mL): 100.26 ± 6.03%
Room temperature stability (24 h) Accuracy ([2]; QC conc. 4.00 ng/mL): 98.72 ± 4.30%
4°C temperature stability (24 h) Accuracy ([2]; QC conc. 8.00 ng/mL): 101.13 ± 4.82%
Freeze-thaw Accuracy ([2]; QC conc. 8.00 ng/mL): 102.33 ± 3.19%
Room temperature stability (24 h) Accuracy ([2]; QC conc. 8.00 ng/mL): 100.64 ± 3.60%
